A word on the chromatographic logD: it is a lipophilicity value derived from retention on a column.

Data set [1] is described as follows: Log D7.4 measurement by chromatographic (fast-gradient HPLC) method. The conditions noted are these: pH 7.4.
Method: The system was calibrated by plotting the retention times of six different drugs (atenolol, metoprolol, labetalol, diltiazem, triphenylene, and permethrin) versus their literature-known log D7.4 in a calibration line (R^2 = 0.99). Subsequently, the mean retention times of the analytes were taken to calculate their log D7.4 values with the aid of the calibration line. At least two independent measurements of each analyte were performed.
In data set [2] the target is VHL30 (Homo sapiens, UniProt P40337). Kind of data set: Immunoblotting (western blot) quantification of VHL30 levels in MM.1S cells. The note with it: for remaining activity at 0.1 µM: MM1.S. A general note: Immunoblotting shows a protein as a band on a membrane.
Sequence of VHL30 (P40337 whole entry): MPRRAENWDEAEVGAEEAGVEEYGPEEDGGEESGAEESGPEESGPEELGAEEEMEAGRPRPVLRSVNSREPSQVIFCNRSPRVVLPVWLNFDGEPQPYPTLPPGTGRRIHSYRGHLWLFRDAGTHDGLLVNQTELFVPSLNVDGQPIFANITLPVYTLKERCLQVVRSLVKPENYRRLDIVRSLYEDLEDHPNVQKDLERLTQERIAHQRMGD
Method: (§1) To evaluate the capability of our panel of hetero-PROTACs for E3 ligase degradation, VHL19, VHL30, CRBN, cIAP1, cIAP2, and XIAP levels were quantified by western blot analyses. […] SDS-PAGE was performed, and proteins were then transferred onto PVDF membranes. Blotted membranes were blocked with 5% milk in Tris-buffered saline/Tween20 (TBST). Primary antibodies were diluted in 5% BSA in TBST, and incubations were performed overnight at 4 °C. Secondary HRP-conjugated antibodies diluted in 5% milk were incubated for 1 h at room temperature. Detection of proteins on PVDF was carried out using the WesternBright ECL HRP substrate or the WesternBright Sirius HRP substrate (Advansta, San Jose, USA) and imaged with LAS 4000× (Fujifilm). Membranes were subjected to 10 min incubation with Restore Western Blot Stripping Buffer (Thermo Fisher Scientific, Waltham, USA), followed by TBST washes. After brief re-activation with methanol, the membranes were blocked, and further probing of proteins was carried out.
(§2) Quantification of blots was performed using ImageJ software (National Institutes of Health).
For data set [3], the target named is cIAP2 (Homo sapiens, UniProt Q13489). Kind of data set: Immunoblotting (western blot) quantification of cIAP2 levels in MM.1S cells. The note with it: MM1.S, 16 h.
Sequence of cIAP2 (Q13489 whole entry): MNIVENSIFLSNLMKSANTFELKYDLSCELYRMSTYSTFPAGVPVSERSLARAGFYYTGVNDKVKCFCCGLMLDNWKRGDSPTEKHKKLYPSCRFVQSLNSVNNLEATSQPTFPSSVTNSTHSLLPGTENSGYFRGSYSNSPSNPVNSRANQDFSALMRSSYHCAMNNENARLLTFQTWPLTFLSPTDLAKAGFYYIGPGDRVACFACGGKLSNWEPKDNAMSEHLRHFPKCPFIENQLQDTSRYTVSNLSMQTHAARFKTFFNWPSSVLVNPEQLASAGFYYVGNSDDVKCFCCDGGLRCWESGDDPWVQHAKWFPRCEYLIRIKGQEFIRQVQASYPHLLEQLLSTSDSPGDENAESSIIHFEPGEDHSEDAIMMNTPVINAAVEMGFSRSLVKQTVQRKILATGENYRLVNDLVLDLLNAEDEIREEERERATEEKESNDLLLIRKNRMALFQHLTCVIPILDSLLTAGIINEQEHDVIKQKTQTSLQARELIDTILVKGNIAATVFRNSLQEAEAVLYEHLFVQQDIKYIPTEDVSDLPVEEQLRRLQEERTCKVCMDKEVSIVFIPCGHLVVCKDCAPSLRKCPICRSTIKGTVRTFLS
The target of data set [4] is XIAP (Homo sapiens, UniProt P98170). In words: Immunoblotting (western blot) quantification of XIAP levels in MM.1S cells. The note with it: MM1.S, 16 h.
Sequence of XIAP (P98170 whole entry): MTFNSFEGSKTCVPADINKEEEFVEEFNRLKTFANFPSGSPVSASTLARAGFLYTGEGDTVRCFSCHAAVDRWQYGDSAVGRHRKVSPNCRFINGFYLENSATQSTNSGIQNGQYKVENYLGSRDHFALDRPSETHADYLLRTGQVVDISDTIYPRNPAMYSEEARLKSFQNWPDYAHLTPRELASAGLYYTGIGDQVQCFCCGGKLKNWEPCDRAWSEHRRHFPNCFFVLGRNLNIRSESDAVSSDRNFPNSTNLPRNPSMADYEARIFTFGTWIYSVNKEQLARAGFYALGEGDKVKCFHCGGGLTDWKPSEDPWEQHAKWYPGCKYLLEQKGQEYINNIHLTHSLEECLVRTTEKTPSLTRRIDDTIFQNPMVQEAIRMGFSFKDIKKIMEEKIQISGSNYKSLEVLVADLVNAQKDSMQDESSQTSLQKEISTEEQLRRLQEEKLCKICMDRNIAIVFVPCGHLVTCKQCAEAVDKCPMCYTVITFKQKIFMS
Method: as §1, §2
In data set [5] the target is cIAP1 (Homo sapiens, UniProt Q13490). Kind of data set: Immunoblotting (western blot) quantification of cIAP1 levels in MM.1S cells. The note with it: MM1.S, 16 h.
Sequence of cIAP1 (Q13490 whole entry): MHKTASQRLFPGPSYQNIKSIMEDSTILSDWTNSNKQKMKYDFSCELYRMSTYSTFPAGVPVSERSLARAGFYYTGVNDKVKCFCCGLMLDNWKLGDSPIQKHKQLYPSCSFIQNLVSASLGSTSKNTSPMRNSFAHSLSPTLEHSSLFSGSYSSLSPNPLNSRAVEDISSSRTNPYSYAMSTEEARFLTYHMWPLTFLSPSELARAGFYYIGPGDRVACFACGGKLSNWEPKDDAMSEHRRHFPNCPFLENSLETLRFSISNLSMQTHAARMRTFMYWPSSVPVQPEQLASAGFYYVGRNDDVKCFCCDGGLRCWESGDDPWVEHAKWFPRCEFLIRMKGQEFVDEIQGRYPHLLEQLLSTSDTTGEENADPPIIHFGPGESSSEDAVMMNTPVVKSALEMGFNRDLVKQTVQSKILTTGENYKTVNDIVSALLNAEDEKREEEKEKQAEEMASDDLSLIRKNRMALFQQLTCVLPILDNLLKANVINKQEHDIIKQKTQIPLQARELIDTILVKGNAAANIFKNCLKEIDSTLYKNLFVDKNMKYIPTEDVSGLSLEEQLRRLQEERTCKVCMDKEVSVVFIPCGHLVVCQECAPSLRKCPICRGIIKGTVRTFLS
The subject of data set [6] is IAPs (cIAP1, cIAP2, XIAP). Kind of data set: Immunoblotting of IAPs in MM.1S cells, overall degradation profile, time course and washout. It counts as cell-based. The note with it: 16 h, western blot, concentration (10 nM to 1 μM). On the procedure:
Next, we examined the persistence of IAP degradation in MM.1S cells after a single exposure to 1 μM of 9 and subsequent removal of the compound. […] The reliance on CRL2^VHL was assessed with a neddylation inhibitor MLN4924, which blocks the activity of CRLs (Figure S13A).

Where [7] appears, read: 16 h, read-out: %remaining protein VHL30, MM.1S cells, 16 h treatment at 0.1 μM, normalized to loading control and DMSO.
[8] abbreviates: read-out: %remaining protein cIAP2, MM.1S cells, 16 h treatment at 0.1 μM, normalized to loading control and DMSO.
The mark [9] stands for this setting: read-out: %remaining protein XIAP, MM.1S cells, 16 h treatment at 0.1 μM, normalized to loading control and DMSO.
[10] abbreviates: read-out: %remaining protein cIAP1, MM.1S cells, 16 h treatment at 0.1 μM, normalized to loading control and DMSO.
The mark [11] stands for this setting: 16 h, read-out: %remaining protein VHL30.
Where [12] appears, read: read-out: %remaining protein cIAP2.
The mark [13] stands for this setting: read-out: %remaining protein XIAP.
[14] abbreviates: read-out: %remaining protein cIAP1.

Like-named read-outs stand apart in the source and are kept apart here.

Molecule `CN[C@@H](C)C(=O)N[C@H](C(=O)N1C[C@@H](Oc2cccc(OCCCCCCOCCCCCCOCCCCCCNc3cccc4c3C(=O)N(C3CCC(=O)N(C)C3=O)C4=O)c2)C[C@H]1C(=O)N[C@@H]1CCCc2ccccc21)C1CCCCC1` (stereo partly drawn) [PROTAC 29, (2S,4S)-1-((S)-2-Cyclohexyl-2-((S)-2-(methylamino)propanamido)acetyl)-4-(3-((6-((6-((6-((2-(1-methyl-2,6-dioxopiperidin-3-yl)-1,3-dioxoisoindolin-4-yl)amino)hexyl)oxy)hexyl)oxy)hexyl)oxy)phenoxy)-N-((R)-1,2,3,4-tetrahydronaphthalen-1-yl)pyrrolidine-2-carboxamide] returned a chromatographic logD in data set [1] of 7.4.

`CC(=O)N(C)[C@@H](C)C(=O)N[C@H](C(=O)N1C[C@@H](Oc2cccc(OCCCCC(=O)N[C@H](C(=O)N3C[C@H](O)C[C@H]3C(=O)N[C@@H](C)c3ccc(-c4scnc4C)cc3)C(C)(C)C)c2)C[C@H]1C(=O)N[C@@H]1CCCc2ccccc21)C1CCCCC1` [PROTAC 10c, (2S,4S)-1-((S)-2-Cyclohexyl-2-((S)-2-(N-methylacetamido)propanamido)acetyl)-4-(3-((5-(((S)-1-((2S,4R)-4-hydroxy-2-(((S)-1-(4-(4-methylthiazol-5-yl)phenyl)ethyl)carbamoyl)pyrrolidin-1-yl)-3,3-dimethyl-1-oxobutan-2-yl)amino)-5-oxopentyl)oxy)phenoxy)-N-((R)-1,2,3,4-tetrahydronaphthalen-1-yl)pyrrolidine-2-carboxamide]: the remaining activity at 0.1 µM in data set [2] (setting [7]) is more than 99%; in data set [3] (setting [8]), more than 99%; in data set [4] (setting [9]), 88%; in data set [5] (setting [10]), 94%. Also, the “IAP degradation profile (in words)” value in data set [6] is “inactivated PROTACs”.

Regarding `Cc1ncsc1-c1ccc([C@H](C)NC(=O)[C@@H]2C[C@@H](O)CN2C(=O)[C@@H](NC(=O)CCCCOc2cccc(O[C@H]3C[C@@H](C(=O)N[C@@H]4CCCc5ccccc54)N(C(=O)[C@@H](NC(=O)[C@H](C)N(C)C)C4CCCCC4)C3)c2)C(C)(C)C)cc1` [PROTAC 10b, (2S,4S)-1-((S)-2-Cyclohexyl-2-((S)-2-(dimethylamino)propanamido)acetyl)-4-(3-((5-(((S)-1-((2S,4R)-4-hydroxy-2-(((S)-1-(4-(4-methylthiazol-5-yl)phenyl)ethyl)carbamoyl)pyrrolidin-1-yl)-3,3-dimethyl-1-oxobutan-2-yl)amino)-5-oxopentyl)oxy)phenoxy)-N-((R)-1,2,3,4-tetrahydronaphthalen-1-yl)pyrrolidine-2-carboxamide], the remaining activity at 0.1 µM in data set [2] (setting [7]) is 63%; in data set [3] (setting [8]), 27%; in data set [4] (setting [9]), 66%; in data set [5] (setting [10]) it was 2%. Besides, in data set [6], the “IAP degradation profile (in words)” value is “cIAP1 and cIAP2 degradation”.

With `CN[C@@H](C)C(=O)N[C@H](C(=O)N1C[C@@H](Oc2cccc(OCCCCCCOCCCCCOCCCCCOc3cc(-c4scnc4C)ccc3CNC(=O)[C@@H]3C[C@@H](O)CN3C(=O)[C@H](C(C)C)N3Cc4ccccc4C3=O)c2)C[C@H]1C(=O)N[C@@H]1CCCc2ccccc21)C1CCCCC1` [PROTAC 18, (2S,4S)-1-((S)-2-Cyclohexyl-2-((S)-2-(methylamino)propanamido)acetyl)-4-(3-((6-((5-((5-(2-(((2S,4R)-4-hydroxy-1-((S)-3-methyl-2-(1-oxoisoindolin-2-yl)butanoyl)pyrrolidine-2-carboxamido)methyl)-5-(4-methylthiazol-5-yl)phenoxy)pentyl)oxy)pentyl)oxy)hexyl)oxy)phenoxy)-N-((R)-1,2,3,4-tetrahydronaphthalen-1-yl)pyrrolidine-2-carboxamide], the chromatographic logD in data set [1] is 5.6. Further, the remaining activity at 0.1 µM worked out at 88% in data set [2] (setting [11]), 37% in data set [3] (setting [12]), 6% in data set [4] (setting [13]) and 5% in data set [5] (setting [14]).

Turning to `CN[C@@H](C)C(=O)N[C@H](C(=O)N1C[C@@H](Oc2cccc(OCCCCCCOCCCCCOCCCCC(=O)N[C@H](C(=O)N3C[C@H](O)C[C@H]3C(=O)NCc3ccc(-c4scnc4C)cc3)C(C)(C)C)c2)C[C@H]1C(=O)N[C@@H]1CCCc2ccccc21)C1CCCCC1` [PROTAC 7, (2S,4S)-1-((S)-2-Cyclohexyl-2-((S)-2-(methylamino)propanamido)acetyl)-4-(3-((6-((5-((5-(((S)-1-((2S,4R)-4-hydroxy-2-((4-(4-methylthiazol-5-yl)benzyl)carbamoyl)pyrrolidin-1-yl)-3,3-dimethyl-1-oxobutan-2-yl)amino)-5-oxopentyl)oxy)pentyl)oxy)hexyl)oxy)phenoxy)-N-((R)-1,2,3,4-tetrahydronaphthalen-1-yl)pyrrolidine-2-carboxamide], the remaining activity at 0.1 µM in data set [2] (setting [11]) is 83%; in data set [3] (setting [12]), 32%; in data set [4] (setting [13]) it was 3%; in data set [5] (setting [14]) it was 2%.

Consider `CN[C@@H](C)C(=O)N[C@H](C(=O)N1C[C@@H](Oc2cccc(OCCCCCCOCCCCCCOCCCCCC(=O)N[C@H](C(=O)N3C[C@H](O)C[C@H]3C(=O)NCc3ccc(-c4scnc4C)cc3)C(C)(C)C)c2)C[C@H]1C(=O)N[C@@H]1CCCc2ccccc21)C1CCCCC1` [PROTAC 8, (2S,4S)-1-((S)-2-Cyclohexyl-2-((S)-2-(methylamino)propanamido)acetyl)-4-(3-((6-((6-((6-(((S)-1-((2S,4R)-4-hydroxy-2-((4-(4-methylthiazol-5-yl)benzyl)carbamoyl)pyrrolidin-1-yl)-3,3-dimethyl-1-oxobutan-2-yl)amino)-6-oxohexyl)oxy)hexyl)oxy)hexyl)oxy)phenoxy)-N-((R)-1,2,3,4-tetrahydronaphthalen-1-yl)pyrrolidine-2-carboxamide], for which the remaining activity at 0.1 µM in data set [2] (setting [7]) stood at 95%; in data set [3] (setting [8]), 36%; in data set [4] (setting [9]), 4%; in data set [5] (setting [10]), 3%.

For the molecule `Cc1ncsc1-c1ccc(CNC(=O)[C@@H]2C[C@@H](O)CN2C(=O)[C@@H](NC(=O)COCCOCCOCCOCCOCCOCC(=O)N[C@H](C(=O)N2C[C@H](O)C[C@H]2C(=O)NCc2ccc(-c3scnc3C)cc2)C(C)(C)C)C(C)(C)C)cc1` [CM11, reference compound], in data set [2] (MM.1S cells, western blot), the “VHL30 degradation (in words)” value is “strong and dose-dependent VHL30 degradation”.

`CN[C@@H](C)C(=O)N[C@H](C(=O)N1C[C@@H](Oc2cccc(OCCCCOCCCC(=O)N[C@H](C(=O)N3C[C@H](O)C[C@H]3C(=O)NCc3ccc(-c4scnc4C)cc3)C(C)(C)C)c2)C[C@H]1C(=O)N[C@@H]1CCCc2ccccc21)C1CCCCC1` [PROTAC 3, (2S,4S)-1-((S)-2-Cyclohexyl-2-((S)-2-(methylamino)propanamido)acetyl)-4-(3-(4-(4-(((S)-1-((2S,4R)-4-hydroxy-2-((4-(4-methylthiazol-5-yl)benzyl)carbamoyl)pyrrolidin-1-yl)-3,3-dimethyl-1-oxobutan-2-yl)amino)-4-oxobutoxy)butoxy)phenoxy)-N-((R)-1,2,3,4-tetrahydronaphthalen-1-yl)pyrrolidine-2-carboxamide]: the remaining activity at 0.1 µM came to 29% in data set [2] (setting [7]), 30% in data set [3] (setting [8]), 4% in data set [4] (setting [9]) and 3% in data set [5] (setting [10]). In data set [2] (MM.1S cells, 16 h, 0.1 μM, quantified by western blot), this molecule came in with a VHL30 protein degradation of 71%.

In the case of `CN[C@@H](C)C(=O)N[C@H](C(=O)N1C[C@@H](Oc2cccc(OCCOCCOCCOCC(=O)N[C@H](C(=O)N3C[C@H](O)C[C@H]3C(=O)NCc3ccc(-c4scnc4C)cc3)C(C)(C)C)c2)C[C@H]1C(=O)N[C@@H]1CCCc2ccccc21)C1CCCCC1` [PROTAC 5, (2S,4R)-1-((S)-2-(tert-Butyl)-14-(3-(((3S,5S)-1-((S)-2-cyclohexyl-2-((S)-2-(methylamino)propanamido)acetyl)-5-(((R)-1,2,3,4-tetrahydronaphthalen-1-yl)carbamoyl)pyrrolidin-3-yl)oxy)phenoxy)-4-oxo-6,9,12-trioxa-3-azatetradecanoyl)-4-hydroxy-N-(4-(4-methylthiazol-5-yl)benzyl)pyrrolidine-2-carboxamide], the remaining activity at 0.1 µM is 37% in data set [2] (setting [7]), 37% in data set [3] (setting [8]), 2% in data set [4] (setting [9]) and 2% in data set [5] (setting [10]).

The record behind these values is paper PMC10108347, “Heterobifunctional Ligase Recruiters Enable pan-Degradation of Inhibitor of Apoptosis Proteins” (Journal of Medicinal Chemistry, 2023).
